Source: US9409952B2, “Peptide-compound cyclization method” (Chugai Seiyaku Kabushiki Kaisha, priority 2011, dated 2016)
Starred links: 1 amine or outer side, 2 acyl side, 3 side chain; linkers in the order of their positions; H or OH if unused. Positions of bridges follow the written chain, without caps; N, C: chain ends. Non-standard residues stand in square brackets, D forms with d. Residues, ends and D or L forms follow the SMILES beside them. *: point of attachment. Cys(O)(CH2CO) = O=C([C@H](C[S+]([O-])CC(=O)[*:3])N[*:1])[*:2]; NMeF = CN[C@@H](Cc1ccccc1)C(=O)O; NMeI = CC[C@H](C)[C@H](NC)C(=O)O; NMeL = CN[C@@H](CC(C)C)C(=O)O; NMeV = CN[C@H](C(=O)O)C(C)C; NMeA = CN[C@@H](C)C(=O)O; Piperidide = C1CCN(*)CC1; Sar = CNCC(=O)O; tBu = CC(C)(C)*

Tests used:
[1] = Stability of aminoacylated pdCpA in buffers and on storage (LC-MS); type: physicochemical; conditions: for % by LC-MS during StBu deprotection: 250 μM Compound 2n-A, 50 mM Tris-HCl pH 7, 10 mM DTT
Description: The side chain StBu of pdCpA-Cys was deprotected using the precursor Compound 2n-A, and the following experiment was carried out to examine stability of the deprotected Compound 2e-A. The side chain was deprotected at room temperature under the conditions of 250 μM of Compound 2n-A, 50 mM Tris-HCl buffer, pH 7, and 10 mM DTT, and the time course of the deprotection was observed by LC-MS (SQD). The intended Compound 2e-A was not observed, and pdCpA resulting from hydrolysis of pdCpA-Cys was observed. After 5 minutes, Compound 2n-A was 51%, Compound 2e-A was 0%, and pdCpA was 49%. After 2 hours, deprotection was completed and Compound 2n-A was 0%, but Compound 2e-A was 0% and all hydrolized so that pdCpA was 100% (FIG. 13).
Stability of Compound 2n-A with the SH group of Cys protected was evaluated. Storage samples were prepared under five conditions as shown in the following Table 2 were prepared, respectively, and analyzed by LC-MS.
Stability of Compound 2n-B with the SH group of MeCys protected was also evaluated. Storage samples were prepared under four conditions as shown in the following Table 3 were prepared and analyzed by LC-MS.

[2] = Metabolic stability in mouse hepatic microsome; type: in vitro ADME; conditions: male, mouse, liver microsomes, pH 7.4; Table 9, thioether versus sulfoxide; read-out: Mouse Hepatic Microsome CLh, int
Description: The obtained compound was metabolically reacted at a concentration of 2 uM with mouse serum (male/female mixed, Valley Biomedical, USA) (adjusted to pH 7.4 with 33.5 mM HEPES buffer) for two hours. Deproteinization treatment with acetonitrile was provided over time, the amount of the remaining unchanged compound was analyzed using LC/MS, and the metabolic half-life (t1/2) was calculated. A microsome solution prepared at 0.5 mg protein/mL from mouse hepatic microsome and small intestinal microsome (male, XENOTECH, USA) using 100 mM phosphate buffer (pH 7.4) was metabolically reacted with the compound at a concentration of 1 uM for 30 minutes in the presence or absence of NADPH. Deproteinization treatment with acetonitrile was provided over time, the amount of the remaining unchanged compound was analyzed using LC/MS, and the hepatic-intrinsic clearance (CLh, int) and the small intestinal-intrinsic clearance (CLg, int) were calculated (Table 7). Such peptides were sufficiently slowly metabolized by hydrolysis with peptidases or the like in mouse sera and microsomes, contrary to peptides composed of natural amino acids having low lipophilicity.
Metabolic stability tests were carried out in the same manner as shown in 2-1.

[3] = PAMPA (parallel artificial membrane permeability assay); type: in vitro ADME; conditions: PAMPA, pH 6.5
Method in brief: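 Artificial membrane was 10% (w/v) egg lecithin plus 0.5% (w/v) cholesterol in dodecane on a PVDF filter. A 10 mM DMSO stock was added at 0.5% (v/v) to donor buffer (50 mM MOPSO, pH 6.5, 5.0% glycocholic acid). After 18 h at 37 °C, LC/MS or LC/UV gave donor and acceptor levels for Pe.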

[4] = Metabolic stability in human hepatic microsome; type: in vitro ADME; conditions: human, microsomes, pH 7.4, CL NADPH(+)
in vivo = conditions: male, C57BL/6J, mouse, 20 mg/kg
[5] = pdCpA-MeCys(StBu): In AcONa buffer, 1 mM, pH 5, room temperature, 5 hours
[6] = pdCpA-MeCys(StBu): In DMSO, 5 mM, pH 4, 0° C., 1 day
[7] = pdCpA-MeCys(StBu): In HEPES buffer, 1 mM, pH 7, room temperature, 1 hour
[8] = pdCpA-MeCys(StBu): In Tris buffer, 1 mM, pH 7, room temperature, 1 hour
[9] = room temperature, after 5 minutes
[10] = room temperature, after 2 hours
[11] = In AcONa buffer, 1 mM, pH 5, room temperature, 1 hour
[12] = In DMSO, 5 mM, pH 4, 0° C., 2.5 days
[13] = In HEPES buffer, 1 mM, pH 7, room temperature, 1 hour
[14] = Stored as solid, room temperature, 16 days

Row | SMILES | Papp at 18 hours, 50 µM [3] [×10⁻⁶ cm/s] | microsomal CLint at 1 uM [4] [µL/min/mg] | AUC (in vivo; iv) [ng·h/mL] | C0 (in vivo; iv) [µg/mL] | Vd (in vivo; iv) [L/kg] | clearance (in vivo; iv) [mL/min/kg] | half-life (in vivo; iv) [min] | AUC (in vivo; po) [ng·h/mL] | CL/F (in vivo; po) [mL/min/kg] | Cmax (in vivo; po) [ng/mL] | Tmax (in vivo; po) [h] | bioavailability (in vivo; po) [%] | half-life (in vivo; po) [min] | further results
1 | CN[C@@H](CSSC(C)(C)C)C(=O)O[C@H]1[C@@H](O)[C@H](n2cnc3c(N)ncnc32)O[C@@H]1COP(=O)(O)O[C@H]1C[C@H](n2ccc(N)nc2=O)O[C@@H]1COP(=O)(O)O [pdCpA-MeCys(StBu), (2R)-(2R,3S,4R,5R)-2-((((((2R,3S,5R)-5-(4-amino-2-oxopyrimidin-1(2H)-yl)-2-((phosphonooxy)methyl)tetrahydrofuran-3-yl)oxy)(hydroxy)phosphoryl)oxy)methyl)-5-(6-amino-9H-purin-9-yl)-4-hydroxytetrahydrofuran-3-yl 3-(tert-butyldisulfanyl)-2-(methylamino)propanoate] | – | – | – | – | – | – | – | – | – | – | – | – | – | % remaining by LC-MS [1, 5]: 100%; % remaining by LC-MS [1, 6]: 100%; % remaining by LC-MS [1, 7]: 49%; % remaining by LC-MS [1, 8]: 35%
2 | CC[C@H](C)[C@H]1C(=O)N[C@H](C(=O)N2CCCCC2)C[S+]([O-])CC(=O)N(C)[C@@H](C)C(=O)N[C@@H](Cc2ccccc2)C(=O)N(C)[C@@H](CC(C)C)C(=O)N[C@@H]([C@@H](C)O)C(=O)N(C)CC(=O)N(C)[C@@H](CC(C)C)C(=O)N[C@@H](COC(C)(C)C)C(=O)N1C (stereo partly drawn) [Compound P-117, (5S,8S,11S,14S,20S,23S,26S,29R)-8-benzyl-23-(tert-butoxymethyl)-26-((S)-sec-butyl)-14-((R)-1-hydroxyethyl)-11,20-diisobutyl-4,5,10,16,19,25-hexamethyl-29-(piperidine-1-carbonyl)-1-thia-4,7,10,13,16,19,22,25,28-nonaazacyclotriacontane-3,6,9,12,15,18,21,24,27-nonone 1-oxide] ([NMeA]F[NMeL]T[Sar][NMeL]S(tBu)[NMeI][Cys(O)(CH2CO)]-Piperidide; lactam N-9) | – | – | – | – | – | – | – | – | – | – | – | – | – | microsomal CLint at 1 uM [2]: 36 µL/min/mg
3 | CC(C)(C)SSC[C@H](N)C(=O)O[C@H]1[C@@H](O)[C@H](n2cnc3c(N)ncnc32)O[C@@H]1COP(=O)(O)O[C@H]1C[C@H](n2ccc(N)nc2=O)O[C@@H]1COP(=O)(O)O [Compound 2n-A, (2R)-(2R,3S,4R,5R)-2-((((((2R,3S,5R)-5-(4-amino-2-oxopyrimidin-1(2H)-yl)-2-((phosphonooxy)methyl)tetrahydrofuran-3-yl)oxy)(hydroxy)phosphoryl)oxy)methyl)-5-(6-amino-9H-purin-9-yl)-4-hydroxytetrahydrofuran-3-yl 2-amino-3-(tert-butyldisulfanyl)propanoate] | – | – | – | – | – | – | – | – | – | – | – | – | – | % by LC-MS during StBu deprotection [1, 9]: 51%; % by LC-MS during StBu deprotection [1, 10]: 0%; % remaining by LC-MS [1, 11]: 70%; % remaining by LC-MS [1, 12]: 58%; % remaining by LC-MS [1, 13]: 30%; % remaining by LC-MS [1, 14]: 64%
4 | CC[C@H](C)[C@H]1C(=O)N[C@@H]([C@@H](C)O)C(=O)N(C)CC(=O)N(C)[C@@H](CC(C)C)C(=O)N[C@H](C(=O)N2CCCCC2)CC(=O)N(C)[C@@H](C)C(=O)N[C@@H](CC(C)C)C(=O)N(C)[C@@H](CC(C)C)C(=O)N(C)[C@@H](Cc2ccccc2)C(=O)N[C@@H](C)C(=O)N(C)[C@@H](Cc2ccccc2)C(=O)N1C [DP-101] ([NMeA]L[NMeL][NMeF]A[NMeF][NMeI]T[Sar][NMeL]D-Piperidide; lactam N-11) | 56 | 101 | 83300 | 112 | 0.455 | 4.01 | 115 | 12700 | 26.2 | 2320 | 1.83 | 15.2 | 136 | –
5 | CC[C@H](C)[C@H]1C(=O)N[C@H](C(=O)N2CCCCC2)C[S+]([O-])CC(=O)N(C)[C@@H](Cc2ccccc2)C(=O)N(C)[C@@H](C)C(=O)N(C)[C@@H](Cc2ccccc2)C(=O)N(C)[C@@H](CC(C)C)C(=O)N[C@@H]([C@@H](C)O)C(=O)N(C)CC(=O)N(C)[C@@H](CC(C)C)C(=O)N[C@@H](COC(C)(C)C)C(=O)N1C (stereo partly drawn) [Compound P-116, (5S,8S,11S,14S,17S,23S,26S,29S,32R)-5,11-dibenzyl-26-(tert-butoxymethyl)-29-((S)-sec-butyl)-17-((R)-1-hydroxyethyl)-14,23-diisobutyl-4,7,8,10,13,19,22,28-octamethyl-32-(piperidine-1-carbonyl)-1-thia-4,7,10,13,16,19,22,25,28,31-decaazacyclotritriacontane-3,6,9,12,15,18,21,24,27,30-decone 1-oxide] ([NMeF][NMeA][NMeF][NMeL]T[Sar][NMeL]S(tBu)[NMeI][Cys(O)(CH2CO)]-Piperidide; lactam N-10) | – | – | – | – | – | – | – | – | – | – | – | – | – | microsomal CLint at 1 uM [2]: 56.5 µL/min/mg
6 | CC[C@H](C)[C@H]1C(=O)N[C@@H](COC(C)(C)C)C(=O)N(C)[C@@H](Cc2ccccc2)C(=O)N(C)[C@@H](C(C)C)C(=O)N[C@H](C(=O)N2CCCCC2)CC(=O)N(C)[C@@H](C)C(=O)N(C)[C@@H](Cc2ccccc2)C(=O)N[C@@H](CC(C)C)C(=O)N(C)[C@@H](CC(C)C)C(=O)N[C@@H]([C@@H](C)O)C(=O)N(C)CC(=O)N1C [DP-47] ([NMeA][NMeF]L[NMeL]T[Sar][NMeI]S(tBu)[NMeF][NMeV]D-Piperidide; lactam N-11) | 50 | 37 | 202000 | 107 | 0.381 | 1.66 | 161 | 38000 | 8.86 | 4490 | 2.67 | 18.8 | 233 | –
7 | CC(C)C[C@H]1C(=O)N2CCC[C@H]2C(=O)N(C)[C@@H](CC(C)C)C(=O)N[C@@H](C)C(=O)N(C)[C@@H](C(C)C)C(=O)N[C@H](C(=O)N2CCCCC2)CC(=O)N(C)[C@@H](C)C(=O)N[C@@H]([C@@H](C)O)C(=O)N(C)CC(=O)N(C)[C@@H](Cc2ccccc2)C(=O)N(C)[C@@H](Cc2ccccc2)C(=O)N1C [DP-67] ([NMeA]T[Sar][NMeF][NMeF][NMeL]P[NMeL]A[NMeV]D-Piperidide; lactam N-11) | 23 | 15 | 70700 | 102 | 0.431 | 4.74 | 195 | 10900 | 37.9 | 2310 | 3.5 | 15.5 | 262 | –
8 | Nc1ccn([C@H]2C[C@H](OP(=O)(O)OC[C@H]3O[C@@H](n4cnc5c(N)ncnc54)[C@H](O)[C@@H]3O)[C@@H](COP(=O)(O)O)O2)c(=O)n1 [pdCpA, ((2R,3S,5R)-5-(4-amino-2-oxopyrimidin-1(2H)-yl)-3-(((((2R,3S,4R,5R)-5-(6-amino-9H-purin-9-yl)-3,4-dihydroxytetrahydrofuran-2-yl)methoxy)(hydroxy)phosphoryl)oxy)tetrahydrofuran-2-yl)methyl dihydrogenphosphate, reference compound] | – | – | – | – | – | – | – | – | – | – | – | – | – | % by LC-MS during StBu deprotection [1, 9]: 49%; % by LC-MS during StBu deprotection [1, 10]: 100%; % remaining by LC-MS [1, 11]: 30%; % remaining by LC-MS [1, 12]: 42%; % remaining by LC-MS [1, 13]: 70%; % remaining by LC-MS [1, 14]: 36%; % remaining by LC-MS [1, 5]: 0%; % remaining by LC-MS [1, 6]: 0%; % remaining by LC-MS [1, 7]: 51%; % remaining by LC-MS [1, 8]: 65%
